Values of other authors, collected in patent US10398673B2, “Mast cell stabilizers treatment for systemic disorders” (Respivant Sciences GmbH, priority 2014, dated 2019).

oral bioavailability: less than 1%
SMILES: O=C(O)c1cc(=O)c2c(OCC(O)COc3cccc4oc(C(=O)O)cc(=O)c34)cccc2o1 [cromolyn sodium]
